Test results reported in PubChem BioAssay (NCI).
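The compound was tested at five concentrations on cells cultured in 96-well plates, with a 48-hour exposure period. At the TGI there is no net growth.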

What was measured:
Experiment in all cases: NCI tumour cell line growth inhibition, 48 h
NCI-H23 lung = test system: NCI-H23 lung
SR leukemia = test system: SR leukemia
U251 CNS = test system: U251 CNS
RXF 393 renal = test system: RXF 393 renal
HL-60(TB) leukemia = test system: HL-60(TB) leukemia
MDA-MB-435 = test system: MDA-MB-435
SK-MEL-5 melanoma = test system: SK-MEL-5 melanoma
SNB-19 CNS = test system: SNB-19 CNS
A498 renal = test system: A498 renal
COLO 205 colon = test system: COLO 205 colon
LOX IMVI melanoma = test system: LOX IMVI melanoma
SK-MEL-2 melanoma = test system: SK-MEL-2 melanoma
SW-620 colon = test system: SW-620 colon
KM12 colon = test system: KM12 colon
RPMI-8226 leukemia = test system: RPMI-8226 leukemia
HCT-15 colon = test system: HCT-15 colon
NCI-H522 lung = test system: NCI-H522 lung
HOP-92 NSCLC = test system: HOP-92 NSCLC
PC-3 prostate = test system: PC-3 prostate

Row | Compound | TGI (NCI-H23 lung) [µM] | TGI (SR leukemia) [µM] | TGI (U251 CNS) [µM] | TGI (RXF 393 renal) [µM] | TGI (HL-60(TB) leukemia) [µM] | TGI (MDA-MB-435) [µM] | TGI (SK-MEL-5 melanoma) [µM] | TGI (SNB-19 CNS) [µM] | TGI (A498 renal) [µM] | TGI (COLO 205 colon) [µM] | TGI (LOX IMVI melanoma) [µM] | TGI (SK-MEL-2 melanoma) [µM] | TGI (SW-620 colon) [µM] | TGI (KM12 colon) [µM] | TGI (RPMI-8226 leukemia) [µM] | TGI (HCT-15 colon) [µM] | TGI (NCI-H522 lung) [µM] | TGI (HOP-92 NSCLC) [µM] | TGI (PC-3 prostate) [µM]
1 | O=C(O)c1ccccc1CC1Cc2cc3c(cc2C1)CCC3 | > 100 | > 100 | > 100 | > 100 | > 100 | > 100 | > 100 | > 100 | > 100 | > 100 | > 100 | > 100 | > 100 | > 100 | > 100 | > 100 | > 100 |  | 
2 | C[Si](C)(C)c1ccc(-c2c3ccc(-c4cc(Br)cc(Br)c4)nc3nc3nc(-c4cc(Br)cc(Br)c4)ccc23)cc1 | > 100 |  | > 100 |  |  | > 100 | > 100 | > 100 | > 100 | > 100 |  | > 100 |  | > 100 | > 100 | > 100 | > 100 | > 100 | > 100
3 | CN/C=C(\C(=O)c1ccc(OC)c(OC)c1)c1ccc(OC)cc1 | > 100 | 60.7 | 21.3 | 33.2 | 32.3 |  | 35 | > 100 | 28.2 | 38.3 | 29.8 | 31.5 | 37.5 | 29.5 | 24.4 | 28.2 | 36 |  | 
4 | O=c1oc2ccccc2c(O)c1C(c1cnc2ccccc2c1)c1c(O)c2ccccc2oc1=O | > 100 |  | > 100 |  | 90 | > 100 | > 100 | > 100 | > 100 | > 100 | > 100 | > 100 | > 100 | > 100 | > 100 | > 100 | > 100 | 58.6 | > 100
5 | CN(C)Cc1cc(C(=O)/C=C/c2ccc(Cl)c(Cl)c2)cc(CN(C)C)c1O | 19.9 |  | 13.6 | 11.1 | > 100 | 13.2 | 3.37 | 11.6 | 11.1 | 2.65 | 2 |  | 3.19 | 4.73 | > 100 | 12.7 | 3.31 | 3.85 | 5.32
6 | CC(=O)Nc1ccc(C(=O)NN2C(=O)CSC2c2ccc(O)cc2)cc1 (configuration not stated) | > 100 |  | > 100 | > 100 | > 100 | > 100 | > 100 | > 100 | > 100 | > 100 |  | > 100 | > 100 | > 100 | > 100 | > 100 |  | > 100 | 
7 | CC(C)(Oc1ccc(Cl)cc1)C(=O)N(C(=O)N1CCCCC1)c1ccccc1 | 33.1 |  | 39.2 | 33.3 | 21 | > 100 | 24.2 | 42.5 | 32.8 | > 100 | 26.6 | 32 | > 100 | 41.2 | > 100 | 24.6 |  |  | 20
